Data: ChEMBL document CHEMBL1201862, “PubChem BioAssay data set” (2004)
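The compound was tested at five concentrations on cells cultured in 96-well plates, with a 48-hour exposure period. GI50 = concentration required for 50% inhibition of growth.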 Calls of active or inactive are those of the source. Cut-off read from the data, not from the text of the source: active = GI50 up to about 1.1 µM and inactive = higher.

Key:
Assay in all cases: DTP human tumour cell line panel, 48 h
IGROV-1 = system: IGROV-1
BT-549 = system: BT-549
NCI/ADR-RES = system: NCI/ADR-RES
T47D = system: T47D
NCI-H23 = system: NCI-H23
HOP-92 = system: HOP-92
A549 = system: A549
786-0 = system: 786-0
TK-10 = system: TK-10
OVCAR-4 = system: OVCAR-4
MDA-MB-231 = system: MDA-MB-231
NCI-H460 = system: NCI-H460
LOX IMVI = system: LOX IMVI
K562 = system: K562
MCF7 = system: MCF7
HCC 2998 = system: HCC 2998
COLO 205 = system: COLO 205
ACHN = system: ACHN
SK-OV-3 = system: SK-OV-3
SNB-19 = system: SNB-19
NCI-H226 = system: NCI-H226
RPMI-8226 = system: RPMI-8226
A498 = system: A498
NCI-H522 = system: NCI-H522
Hs-578T = system: Hs-578T
MOLT-4 = system: MOLT-4
UO-31 = system: UO-31
EKVX = system: EKVX
M14 = system: M14
DU-145 = system: DU-145
HL-60 = system: HL-60
MDA-N = system: MDA-N
PC-3 = system: PC-3
HT-29 = system: HT-29
SF-539 = system: SF-539
RXF 393 = system: RXF 393
UACC-257 = system: UACC-257
SK-MEL-5 = system: SK-MEL-5
HCT-15 = system: HCT-15
HCT-116 = system: HCT-116
CAKI-1 = system: CAKI-1
SK-MEL-28 = system: SK-MEL-28
KM12 = system: KM12
MDA-MB-435 = system: MDA-MB-435
CCRF-CEM = system: CCRF-CEM
SF-268 = system: SF-268
SW-620 = system: SW-620
Malme-3M = system: Malme-3M
SN12C = system: SN12C
OVCAR-8 = system: OVCAR-8
HOP-62 = system: HOP-62
SR = system: SR
OVCAR-3 = system: OVCAR-3
UACC-62 = system: UACC-62
SK-MEL-2 = system: SK-MEL-2
SF-295 = system: SF-295
OVCAR-5 = system: OVCAR-5
U-251 = system: U-251
SNB-75 = system: SNB-75

Measured: GI50

O=C(C(Cl)=C(N1CCOCC1)N1CCOCC1)C(Cl)Cl
> 100 µM: HCT-15
inactive: IGROV-1 > 100 µM | BT-549 > 100 µM | NCI/ADR-RES > 100 µM | T47D > 100 µM | NCI-H23 > 100 µM | HOP-92 > 100 µM | A549 > 100 µM | 786-0 > 100 µM | TK-10 > 100 µM | OVCAR-4 > 100 µM | MDA-MB-231 > 100 µM | NCI-H460 > 100 µM | LOX IMVI > 100 µM | K562 > 100 µM | MCF7 94.2 µM | HCC 2998 > 100 µM | COLO 205 > 100 µM | ACHN > 100 µM | SK-OV-3 > 100 µM | SNB-19 > 100 µM | NCI-H226 > 100 µM | RPMI-8226 > 100 µM | A498 > 100 µM | NCI-H522 > 100 µM | Hs-578T > 100 µM | MOLT-4 > 100 µM | UO-31 > 100 µM | EKVX > 100 µM | M14 > 100 µM | DU-145 > 100 µM | HL-60 > 100 µM | MDA-N > 100 µM | PC-3 > 100 µM | HT-29 > 100 µM | SF-539 > 100 µM | RXF 393 > 100 µM | UACC-257 > 100 µM | SK-MEL-5 > 100 µM | HCT-116 > 100 µM | CAKI-1 > 100 µM | SK-MEL-28 > 100 µM | KM12 > 100 µM | MDA-MB-435 > 100 µM | CCRF-CEM 56.9 µM | SF-268 > 100 µM | SW-620 > 100 µM | Malme-3M > 100 µM | SN12C > 100 µM | OVCAR-8 > 100 µM | HOP-62 > 100 µM | SR 34.5 µM | OVCAR-3 > 100 µM | UACC-62 > 100 µM

C=CCC1(O)c2cccc(O)c2C(=O)c2c(O)cccc21
inactive: IGROV-1 45.9 µM | BT-549 29.6 µM | NCI/ADR-RES 18.9 µM | T47D 23.3 µM | NCI-H23 24.7 µM | HOP-92 28.1 µM | A549 24 µM | 786-0 35.8 µM | TK-10 32.7 µM | OVCAR-4 28.4 µM | MDA-MB-231 33.5 µM | NCI-H460 31.8 µM | LOX IMVI 20.9 µM | K562 21 µM | MCF7 30.1 µM | HCC 2998 17.5 µM | ACHN 32.5 µM | NCI-H226 45.7 µM | RPMI-8226 31.7 µM | A498 29 µM | NCI-H522 23.8 µM | Hs-578T 24.4 µM | SK-MEL-2 17.3 µM | MOLT-4 29.3 µM | UO-31 27.8 µM | SF-295 27.1 µM | EKVX 27.5 µM | M14 20.8 µM | DU-145 29.9 µM | HL-60 20.5 µM | OVCAR-5 35.2 µM | MDA-N 9.93 µM | PC-3 26 µM | U-251 23.6 µM | SNB-75 21.1 µM | HT-29 22.6 µM | SF-539 57.8 µM | RXF 393 15.9 µM | UACC-257 23 µM | SK-MEL-5 29.4 µM | HCT-116 23.1 µM | CAKI-1 31.2 µM | SK-MEL-28 31.7 µM | KM12 24.4 µM | MDA-MB-435 9.51 µM | SF-268 32.7 µM | SW-620 31.6 µM | OVCAR-8 32.2 µM | HOP-62 80.2 µM | SR 10.9 µM | OVCAR-3 47.9 µM
17.7 µM: HCT-15

COc1ccc(CNc2nc3ccccc3nc2C(=O)O)cc1
inactive: IGROV-1 > 100 µM | BT-549 > 100 µM | NCI/ADR-RES 38.9 µM | T47D 65.3 µM | NCI-H23 > 100 µM | HOP-92 70.5 µM | A549 > 100 µM | 786-0 57.8 µM | TK-10 > 100 µM | MDA-MB-231 > 100 µM | NCI-H460 55.5 µM | LOX IMVI 45.4 µM | K562 93.3 µM | MCF7 > 100 µM | HCC 2998 > 100 µM | COLO 205 71.6 µM | SNB-19 > 100 µM | NCI-H226 > 100 µM | RPMI-8226 21.7 µM | A498 > 100 µM | NCI-H522 72.9 µM | Hs-578T > 100 µM | SK-MEL-2 > 100 µM | MOLT-4 > 10 µM | UO-31 39 µM | SF-295 51.4 µM | EKVX 78.2 µM | M14 > 100 µM | DU-145 66.4 µM | HL-60 95.7 µM | OVCAR-5 > 100 µM | MDA-N > 100 µM | PC-3 > 100 µM | U-251 58.6 µM | SNB-75 93.8 µM | HT-29 > 100 µM | SF-539 > 100 µM | RXF 393 > 100 µM | UACC-257 > 100 µM | SK-MEL-5 52.6 µM | HCT-116 51.6 µM | CAKI-1 > 100 µM | SK-MEL-28 > 100 µM | KM12 65.6 µM | MDA-MB-435 > 100 µM | CCRF-CEM 83.4 µM | SF-268 > 100 µM | SW-620 > 100 µM | SN12C > 100 µM | OVCAR-8 > 100 µM | HOP-62 > 100 µM | SR 41.1 µM | OVCAR-3 > 100 µM | UACC-62 > 100 µM
23.1 µM: HCT-15
